From patent US10900040B2, “Methods of reducing or preventing intimal damage caused by mechanical stimulation of endothelial cells” (University of Maryland, Baltimore, priority 2015, dated 2021)

Assays:
TRPM4 = test: Reduction of TRPM4 expression by antisense oligodeoxynucleotides; assay type: in vivo; conditions: TRPM4-AS1 and TRPM4-AS2 used together; phosphorothioated
From the text: (§1) In certain embodiments of the invention, antagonists of TRPM4 are employed in methods and/or compositions. Antagonists may be of any kind, but in particular embodiments the antagonists are proteins, nucleic acids, small molecules, and so forth. In specific cases, the TRPM4 antagonists comprise flufenamic acid and/or 9-phenanthrol and/or spermine and/or decavanadate and/or BTP2 and/or anti-TRPM4 antibodies. In specific cases, the TRPM4 nucleic acid antagonists comprises RNAi, such as siRNA or shRNA or antisense oligodeoxynucleotides (AS-ODN).

spinal cord injury = test: Outcome from spinal cord injury after antisense oligodeoxynucleotides; assay type: in vivo; conditions: TRPM4-AS1 and TRPM4-AS2 used together; phosphorothioated
From the text: as §1

SUR1-TRPM4 channel = biological target: T1, SUR1-TRPM4 channel (Homo sapiens, UniProt Q09428+Q8TD43); test: Patch clamp recordings of SUR1-TRPM4 channel currents in mechanically stimulated endothelial cells; assay type: cell-based; conditions: endothelial cells after mechanical stimulation; currents carried by Cs+ ions
T1 construct: endogenous in cells
T1 sequence (Q09428 whole entry): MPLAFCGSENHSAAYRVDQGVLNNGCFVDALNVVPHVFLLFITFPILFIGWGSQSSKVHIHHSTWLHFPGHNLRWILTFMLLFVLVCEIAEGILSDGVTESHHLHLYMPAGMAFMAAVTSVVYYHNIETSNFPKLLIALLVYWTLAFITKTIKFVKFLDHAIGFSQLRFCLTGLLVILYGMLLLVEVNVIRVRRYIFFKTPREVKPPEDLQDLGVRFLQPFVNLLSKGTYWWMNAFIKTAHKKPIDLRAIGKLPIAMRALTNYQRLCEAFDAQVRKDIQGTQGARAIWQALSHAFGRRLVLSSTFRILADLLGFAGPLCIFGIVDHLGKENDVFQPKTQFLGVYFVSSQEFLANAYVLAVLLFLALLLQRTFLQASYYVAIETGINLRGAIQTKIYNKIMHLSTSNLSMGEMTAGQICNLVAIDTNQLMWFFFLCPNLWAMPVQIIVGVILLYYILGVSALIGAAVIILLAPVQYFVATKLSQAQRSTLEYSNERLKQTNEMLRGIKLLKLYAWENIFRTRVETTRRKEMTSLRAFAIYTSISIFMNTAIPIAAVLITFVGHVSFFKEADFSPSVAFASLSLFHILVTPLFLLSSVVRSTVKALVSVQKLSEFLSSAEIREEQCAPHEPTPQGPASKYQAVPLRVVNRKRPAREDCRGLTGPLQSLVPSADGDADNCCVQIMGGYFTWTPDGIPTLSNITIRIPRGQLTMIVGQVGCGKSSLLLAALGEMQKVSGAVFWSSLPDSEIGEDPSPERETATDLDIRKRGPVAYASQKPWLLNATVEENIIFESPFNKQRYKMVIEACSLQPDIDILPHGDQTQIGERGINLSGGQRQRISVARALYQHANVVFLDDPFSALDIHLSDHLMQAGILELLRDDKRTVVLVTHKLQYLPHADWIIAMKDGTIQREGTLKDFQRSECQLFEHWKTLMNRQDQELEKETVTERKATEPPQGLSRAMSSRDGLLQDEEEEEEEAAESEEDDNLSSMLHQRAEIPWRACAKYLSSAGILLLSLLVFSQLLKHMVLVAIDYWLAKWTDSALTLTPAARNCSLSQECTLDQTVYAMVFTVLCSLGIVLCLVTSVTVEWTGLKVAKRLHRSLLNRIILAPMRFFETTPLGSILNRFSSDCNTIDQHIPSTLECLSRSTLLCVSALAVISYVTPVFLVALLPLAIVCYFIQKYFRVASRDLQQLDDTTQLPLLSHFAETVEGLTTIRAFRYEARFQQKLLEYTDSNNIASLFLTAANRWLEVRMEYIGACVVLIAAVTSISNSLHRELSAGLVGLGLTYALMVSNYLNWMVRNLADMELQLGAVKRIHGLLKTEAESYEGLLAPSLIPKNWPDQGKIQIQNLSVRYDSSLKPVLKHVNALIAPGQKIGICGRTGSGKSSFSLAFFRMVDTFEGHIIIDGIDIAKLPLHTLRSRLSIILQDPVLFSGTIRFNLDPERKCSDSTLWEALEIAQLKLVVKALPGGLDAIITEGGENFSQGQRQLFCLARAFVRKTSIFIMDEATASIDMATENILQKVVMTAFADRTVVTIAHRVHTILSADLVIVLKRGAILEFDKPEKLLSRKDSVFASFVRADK
T1 sequence (Q8TD43 whole entry): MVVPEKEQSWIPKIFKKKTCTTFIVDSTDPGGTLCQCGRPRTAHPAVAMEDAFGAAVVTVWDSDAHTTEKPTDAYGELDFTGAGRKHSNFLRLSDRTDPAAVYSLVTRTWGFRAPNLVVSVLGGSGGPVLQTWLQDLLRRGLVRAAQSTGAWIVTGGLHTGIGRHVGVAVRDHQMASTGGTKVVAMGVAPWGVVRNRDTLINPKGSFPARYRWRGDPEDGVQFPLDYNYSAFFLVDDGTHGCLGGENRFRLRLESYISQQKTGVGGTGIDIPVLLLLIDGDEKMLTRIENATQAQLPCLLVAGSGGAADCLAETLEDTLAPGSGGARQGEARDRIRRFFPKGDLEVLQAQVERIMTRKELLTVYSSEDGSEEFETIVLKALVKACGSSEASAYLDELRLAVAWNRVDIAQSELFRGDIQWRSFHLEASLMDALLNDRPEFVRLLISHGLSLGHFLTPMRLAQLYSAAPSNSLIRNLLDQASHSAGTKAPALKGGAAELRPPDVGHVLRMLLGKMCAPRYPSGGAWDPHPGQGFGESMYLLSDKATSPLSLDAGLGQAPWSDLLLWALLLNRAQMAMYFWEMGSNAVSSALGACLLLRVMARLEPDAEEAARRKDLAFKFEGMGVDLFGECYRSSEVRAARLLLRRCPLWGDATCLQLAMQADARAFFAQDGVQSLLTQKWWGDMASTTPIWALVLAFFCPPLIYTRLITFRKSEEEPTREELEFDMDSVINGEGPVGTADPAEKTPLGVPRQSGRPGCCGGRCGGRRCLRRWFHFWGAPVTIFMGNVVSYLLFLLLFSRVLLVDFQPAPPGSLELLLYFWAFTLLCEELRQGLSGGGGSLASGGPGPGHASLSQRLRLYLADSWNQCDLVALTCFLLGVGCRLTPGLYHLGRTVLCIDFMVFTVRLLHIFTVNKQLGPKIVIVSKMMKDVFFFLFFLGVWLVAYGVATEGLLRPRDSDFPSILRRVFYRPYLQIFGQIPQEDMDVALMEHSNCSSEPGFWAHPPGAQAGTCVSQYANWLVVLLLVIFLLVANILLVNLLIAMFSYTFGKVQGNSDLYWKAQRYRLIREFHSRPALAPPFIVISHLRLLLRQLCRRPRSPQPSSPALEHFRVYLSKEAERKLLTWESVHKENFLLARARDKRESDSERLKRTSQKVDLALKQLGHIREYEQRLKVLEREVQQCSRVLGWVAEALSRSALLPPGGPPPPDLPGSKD
Description: FIGS. 2A and 2B. Mechanical stimulation of endothelial cells causes upregulation of functional SUR1-TRPM4 channels. Endothelial cells were cultured in dishes with flexible bottoms and the cells were mechanically stimulated by applying puffs of air to the underside of the dishes. […] FIG. 2B: Amplitudes of SUR1-TRPM4 channel currents measured at −50 mV under control conditions before mechanical activation (CTR), following mechanical activation (STR), following mechanical activation in the presence of the NF-kappaB inhibitor, pyrrolidine dithiocarbamate (PDTC) as negative control, and without mechanical activation, in the presence of tumor necrosis factor alpha (TNFalpha), as positive control.
Endothelial cells were cultured in dishes with flexible bottoms and the cells were mechanically stimulated by applying puffs of air to the underside of the dishes. […] NFκB activation caused robust transcriptional upregulation of the SUR1-TRPM4 channels 6 hours later (FIGS. 1B and 1C). […] The critical role of the mechanosensitive transcription factor, NF-κB, in Sur1-Trpm4 channel upregulation was confirmed using the NF-κB inhibitor, pyrrolidine dithiocarbamate (PDTC) as negative control, and the NF-κB activator, tumor necrosis factor α (TNFα), as positive control (FIG. 2B).

| Compound | reducing TRPM4 expression (TRPM4) | improving outcome from spinal cord injury (spinal cord injury) | effect on SUR1-TRPM4 channel currents (patch clamp) (SUR1-TRPM4 channel) |
| --- | --- | --- | --- |
| 5′-CTGCGATAGCACTCGCCAAA-3′ (chemistry not given here) [TRPM4-AS2, antisense oligodeoxynucleotide against TRPM4] | highly effective | highly effective |  |
| 5′-GTGTGCATCGCTGTCCCACA-3′ (chemistry not given here) [TRPM4-AS1, antisense oligodeoxynucleotide against TRPM4] | highly effective | highly effective |  |
| CNC[C@H](O)[C@@H](O)[C@H](O)[C@H](O)CO [N-methyl-D-glucamine] |  |  | channel blockade |
